Reference: PMC3816687, “Relationships between Cargo, Cell Penetrating Peptidesand Cell Type for Uptake of Non-Covalent Complexes into Live Cells” (Pharmaceuticals, 2013)
“Also recorded” adds a separate entry of the source. Read-outs that look alike come from different tables or passages of the source. *1 amine or outer side, *2 acyl side, *3 side chain or, on linkers, in order; H or OH if unused. Cysteamide = C(CS[*:3])N[*:1]

What was measured:
Jurkat cells = assay: Internalization of β-galactosidase into Jurkat cells, X-gal staining; format: cell-based, Human; conditions: complexes of β-galactosidase and CPP, ratio 1:10, X-Gal staining
Procedure: (§1) A detailed description of formation of complexes with peptides and proteins is given in a previous publication. Briefly, cargo proteins (ATTO488-BSA, MW ≈ 68 kDa, β-galactosidase, MW ≈ 540 kDa) and the calculated volume of stock solution of CPPs or JBS-Proteoducin were dissolved separately in 100 µL of 1× PBS). Both solutions were thoroughly mixed by repeated pipetting. The mixture was incubated for 30 minutes at 37 °C to achieve complex formation. The molar ratio of cargo to CPPs was usually calculated to 1:10. For internalization of higher amounts of cargo, both the amount of protein and stock solution of CPP or cocktail, respectively, were multiplied. Complexes of the enzyme β-galactosidase and JBS-Proteoducin were formed from 1 µg β-galactosidase and 1 µL stock solution of JBS-Proteoducin under the described conditions.
The thoroughly washed cell pellet was suspended in 200 µL of complex solution followed by 400 µL of serum free medium, gently mixed and transferred into 24-well plates. […] After addition of 1.4 mL of complete culture medium incubation was continued at 37 °C for approx. 2 h in a humidified atmosphere containing 5% CO2. The cells were washed by spinning down twice with PBS, three times with glycine buffer (pH 3.0) and twice with PBS.
(§2) Staining of the cells took place in multiwell-plates. Jurkat and Leishmania cells were stained according to the instructions described in [24], using a staining solution containing potassium ferrocyanide, potassium ferricyanide and X-gal. Leishmania cells were stained after finishing the above described transduction protocol. For Jurkat cells the staining was performed after transferring cells from spinning tubes used in the last washing step to 24-well plates. Cells were incubated in staining solution overnight and directly observed in a microscope using a 400-fold magnification.

Leishmania tarentolae [1] = assay: Internalization of β-galactosidase into Leishmania tarentolae, X-gal staining; format: cell-based; conditions: molar ratios 1:5, 1:10, 1:20 of cargo and CPP
Procedure: as §1
For transduction cells in an early stage of development were used. To this end stock cultures were diluted 1:10 the day before the experiment into 10 mL of culture medium in 25 cm^2-ventilated tissue culture flasks and were incubated overnight in the dark at 26 °C for optimal proliferation. Cell suspensions with an OD of 1.2 (ca. 4 × 10^7 cells/mL) were used for transduction. The cells were thoroughly washed twice with PBS (5 mL each) by centrifugation (2,000 × g, 3 min). Pellets were resuspended in the original volume of PBS containing 0.1% BSA and aliquoted into 24-well plates. Four hundred µL of cell suspension were used per experiment. Two hundred µL of the complex solutions were added to these cells and mixtures were incubated for 1 h at 26 °C in the dark with gentle agitation. Successively, 1 mL of complete growth medium (LEXSY BHI) was added per sample and incubation was continued at 26 °C for 2 h. Cells were washed twice with PBS (2 mL each) by centrifugation (2,000 × g, 3 min) prior to analysis of transduction.
as §2

Leishmania tarentolae [2] = assay: Transduction of ATTO488-BSA into Leishmania tarentolae; format: cell-based; conditions: molar ratio 1:10, Leishmania tarentolae, fluorescence plate reader after cell lysis
Procedure: as §1, with “Complexes of the enzyme β-galactosidase and JBS-Proteoducin were formed from 1 µg β-galactosidase and 1 µL stock solution of JBS-Proteoducin under the described conditions.” left out
For confocal microscopy of fixed and living cells, a LSM 710 laser scanning confocal microscope was used as previously described. […] To avoid bleed-through effects in multi-fluorescence staining experiments, each dye was scanned independently in a multitracking mode. […]
Quantitative fluorescence measurements on internalized fluorescent nucleotide and SDS-PAGE with fluorescent proteins allow the calculation of the internalized amount of cargo. […] The mean volume was calculated to 1.2 × 10^−5 µL. […] Uptake of ATTO488-BSA into Leishmania tarentolae was estimated with a fluorescence plate reader after cell lysis. The volume of Leishmania tarentolae was calculated to 2.0 × 10^−7 µL.

Leishmania tarentolae [3] = assay: Cytotoxicity test for Leishmania tarentolae (morphology and motility); format: cell-based
Procedure: Leishmania cells were cultivated as described previously, resuspended in PBS and treated with increasing concentrations of cocktails and CPPs for 1 h. Cytotoxic effects were monitored by changes in morphology and motility observed using a microscope at 400-fold magnification.

HeLa cells [4] = conditions: non-covalent complexes, X-Gal staining; cited from earlier work
Description: HeLa cells: As shown in our preceding publication, the CPP cocktail JBS-Proteoducin can internalize enzymatic active β-galactosidase into all cell types investigated, including difficult to transfect Kasumi-1 cells. The active enzyme was transported not only into all types of cells but all of the observed cells are also positively stained using the β-galactosidase substrate 5-bromo-4-chloro-indolyl-β-D-galactopyranoside (X-Gal).

Leishmania tarentolae [5] = conditions: non-covalent complexes; cited from earlier work
Description: Formation of non-covalent complexes between cargo and CPP occurs by optimized interaction of the CPP with the surface of the cargo. These complexes are stabilized by ionic, polar, π-electron-cation, or hydrophobic interactions, hydrogen bonds and common interactions between molecules. Thus, for the same cell type different cargoes show different rank orders for CPPs.

HeLa cells [6] = conditions: non-covalent complexes; cited from earlier work
Procedure: Table 4 Intracellular amounts and concentrations. Internalized amounts are calculated from fluorescence intensities in the homogenate directly or after separation by SDS-PAGE. In the case of nucleoside triphosphates quantification was performed by fluorescence spectrometry. Estimation of cell volumes allows the calculation of intracellular concentrations. […] The rank order for the uptake of β-galactosidase into HeLa cells: JBS-Proteoducin > MPGα ≥ MPGβ > CAD-2 >> CPPP-2 // HIV-TAT = penetratin provides evidence for different requirements of enzyme and nucleotide for co ...

COS-7 cells = assay: Degradation of CPPs by secreted and surface bound proteases of COS-7 cells; conditions: 60 min incubation with 0.3 × 10^6 intact cells per well, PBS, 37 °C, 5% CO2, RP18 HPLC, 220 nm
Procedure: (§3) In a 6-well-plate with 0.3 × 10^6 cells per well the different cell types were cultivated overnight under optimized conditions. Then medium was removed by aspiration (adherent cell) or centrifugation (suspension cells) and washed cells were incubated with CPPs in phosphate buffer solution (PBS). Incubation was performed under the same conditions as the transduction of complexes with the cargo for 1 h at 37 °C in a humidified atmosphere containing 5% CO2. After 15, 30, 45 and 60 min samples of 200 µL were taken and the proteolytic reaction was stopped by addition of 50 µL 37 perc. HCl. After freezing and lyophilization samples were analyzed by analytical high performance liquid chromatography (HPLC), using a RP18 column (Vydac 218TP). In case of MPGβ, for elution a gradient was used from 10% acetonitrile and 90% water, both containing 0.1% trifluoroacetic acid to 60% acetonitrile and 40% water in 50 min. […] The flow rate was 1.0 ml/min and detection was performed at 220 nm.

NB-4 cells [7] = assay: Degradation of CPPs by proteases of NB-4 cells; format: in vitro ADME, Human; conditions: 60 min incubation with 0.3 × 10^6 intact cells per well, PBS, 37 °C, 5% CO2, RP18 HPLC, 220 nm
Procedure: as §3

[8] = system: most of the cells investigated; assay: Proteolytic stability of CPPs compared over the cells investigated; format: in vitro ADME; conditions: incubation with intact cells up to 60 min, PBS, 37 °C, HPLC
Procedure: as §3

HeLa cells [9] = assay: Membrane integrity, CytoTox-Glo assay, HeLa cells; format: cell-based, Human; conditions: low concentrations (9.4 µM), 1 h at 37 °C in serum-free medium, triplicates
Procedure: (§4) Cells were cultured under standard conditions and treated in serum-free medium for 1 h at 37 °C with different CPPs and the cocktail. After removal of CPPs and repeated washings the membrane integrity of the cells was estimated by the bioluminescence test CytoTox-Glo measuring the release of a cytosolic dead-cell protease. The CytoTox-Glo assay was performed according to the supplier’s instructions and adapted to 96-well plates. Bioluminescence was estimated by a luminescence plate reader. Each value was measured in triplicates with an SD of ± 1.2.

NB-4 cells [10] = assay: Membrane integrity, CytoTox-Glo assay, NB-4 cells; format: cell-based, Human; conditions: low concentrations (9.4 µM), 1 h at 37 °C in serum-free medium, triplicates
Procedure: as §4

different cell lines = assay: Membrane integrity, CytoTox-Glo assay, different cell lines; format: cell-based; conditions: up to 141 µM, 1 h at 37 °C in serum-free medium, triplicates
Procedure: as §4

[11] = 1 h in PBS with increasing concentrations, changes in morphology and motility, microscope 400-fold

Substance: Ac-GALFLAFLAAALSLMGLWSQPKKKRKV-NH-CH2-CH2-SH (Ac-GALFLAFLAAALSLMGLWSQPKKKRKV-Cysteamide; SMILES CSCC[C@H](NC(=O)[C@H](CC(C)C)NC(=O)[C@H](CO)NC(=O)[C@H](CC(C)C)NC(=O)[C@H](C)NC(=O)[C@H](C)NC(=O)[C@H](C)NC(=O)[C@H](CC(C)C)NC(=O)[C@H](Cc1ccccc1)NC(=O)[C@H](C)NC(=O)[C@H](CC(C)C)NC(=O)[C@H](Cc1ccccc1)NC(=O)[C@H](CC(C)C)NC(=O)[C@H](C)NC(=O)CNC(C)=O)C(=O)NCC(=O)N[C@@H](CC(C)C)C(=O)N[C@@H](Cc1c[nH]c2ccccc12)C(=O)N[C@@H](CO)C(=O)N[C@@H](CCC(N)=O)C(=O)N1CCC[C@H]1C(=O)N[C@@H](CCCCN)C(=O)N[C@@H](CCCCN)C(=O)N[C@@H](CCCCN)C(=O)N[C@@H](CCCNC(=N)N)C(=O)N[C@@H](CCCCN)C(=O)N[C@H](C(=O)NCCS)C(C)C) [MPGα, MPG cell penetrating peptide, 5 positive charges]
- rank order for internalization of β-galactosidase into Jurkat cells (Jurkat cells): JBS-Proteoducin > MPGβ > MPGα > CAD-2 >> CPPP-2
- rank order for uptake efficiency of β-galactosidase into Leishmania tarentolae (Leishmania tarentolae [1]): CAD-2 > MPGα > Histone > MPGβ >> penetratin ≥ HIV-TAT ≥ CPPP-2
- Internalized amount, amol per cell (Leishmania tarentolae [2]; cargo ATTO488-BSA 1 µg + CPP): 0.8 x 10^−2 amol per cell
- Internalized amount, amol per cell (Leishmania tarentolae [2]; cargo ATTO488-BSA 10 µg + CPP): 3.3 x 10^−2 amol per cell
- Cytotoxicity in Leishmania tarentolae (Leishmania tarentolae [3]): ≤ 5 µM
- rank order for internalization of β-galactosidase into HeLa cells (HeLa cells [4]): JBS-Proteoducin > MPGα ≥ MPGβ > CAD-2 >> CPPP-2 // HIV-TAT, penetratin
- rank order for transport of ATTO488-labeled BSA into Leishmania (Leishmania tarentolae [5]): MPGα >> CAD-2 > histone
- rank order of uptake efficiency of ATTO488-dUTP into HeLa cells (HeLa cells [6]): JBS-Nucleoducin > CAD-2 > MPGα ≥ MPGβ > penetratin >> CPP-2

Substance: Ac-GALFLGFLGAAGSTMGAWSQPKKKRKV-NH-CH2-CH2-SH [MPGβ, MPG cell penetrating peptide, 5 positive charges]
- stability against proteolytic cleavage by COS-7 cells (HPLC peak) (COS-7 cells): strongly reduced
- rank order for internalization of β-galactosidase into Jurkat cells (Jurkat cells): JBS-Proteoducin > MPGβ > MPGα > CAD-2 >> CPPP-2
- rank order for uptake efficiency of β-galactosidase into Leishmania tarentolae (Leishmania tarentolae [1]): CAD-2 > MPGα > Histone > MPGβ >> penetratin ≥ HIV-TAT ≥ CPPP-2
- Cytotoxicity in Leishmania tarentolae (Leishmania tarentolae [3]; [11]): ≤ 5 µM
- sensitivity of Leishmania tarentolae cells (Leishmania tarentolae [3]; concentrations of 10 µM, morphology and motility): very sensitive
- rank order for internalization of β-galactosidase into HeLa cells (HeLa cells [4]): JBS-Proteoducin > MPGα ≥ MPGβ > CAD-2 >> CPPP-2 // HIV-TAT, penetratin
- rank order of uptake efficiency of ATTO488-dUTP into HeLa cells (HeLa cells [6]): JBS-Nucleoducin > CAD-2 > MPGα ≥ MPGβ > penetratin >> CPP-2

Substance: GLWRALWRLLRSLWRLLWKA-NH-CH2-CH2-SH [CAD-2, des-acetyl, Lys^19-CADY, cell penetrating peptide, 6 positive charges]
- stability against proteolytic cleavage by COS-7 cells (HPLC peak) (COS-7 cells): remains stable
- stability against proteolytic cleavage by NB-4 cells (HPLC peak) (NB-4 cells [7]): remains stable
- relative proteolytic stability among the CPPs [8]: nearly unaffected; also recorded: most stable
- rank order for internalization of β-galactosidase into Jurkat cells (Jurkat cells): JBS-Proteoducin > MPGβ > MPGα > CAD-2 >> CPPP-2
- rank order for uptake efficiency of β-galactosidase into Leishmania tarentolae (Leishmania tarentolae [1]): CAD-2 > MPGα > Histone > MPGβ >> penetratin ≥ HIV-TAT ≥ CPPP-2
- membrane integrity of HeLa cells (release of dead-cell protease) (HeLa cells [9]): sensitive
- membrane integrity of NB-4 cells (release of dead-cell protease) (NB-4 cells [10]): sensitive
- reduction of membrane integrity with increasing concentrations (different cell lines): very low
- Cytotoxicity in Leishmania tarentolae (Leishmania tarentolae [3]): ≤ 25 µM
- rank order for internalization of β-galactosidase into HeLa cells (HeLa cells [4]): JBS-Proteoducin > MPGα ≥ MPGβ > CAD-2 >> CPPP-2 // HIV-TAT, penetratin
- rank order for transport of ATTO488-labeled BSA into Leishmania (Leishmania tarentolae [5]): MPGα >> CAD-2 > histone
- rank order of uptake efficiency of ATTO488-dUTP into HeLa cells (HeLa cells [6]): JBS-Nucleoducin > CAD-2 > MPGα ≥ MPGβ > penetratin >> CPP-2

Substance: KLPVM [CPPP-2, cell penetrating pentapeptide, 2 positive charges]
- rank order for internalization of β-galactosidase into Jurkat cells (Jurkat cells): JBS-Proteoducin > MPGβ > MPGα > CAD-2 >> CPPP-2
- rank order for uptake efficiency of β-galactosidase into Leishmania tarentolae (Leishmania tarentolae [1]): CAD-2 > MPGα > Histone > MPGβ >> penetratin ≥ HIV-TAT ≥ CPPP-2
- Cytotoxicity in Leishmania tarentolae (Leishmania tarentolae [3]; [11]): ≥ 100 µM
- rank order for internalization of β-galactosidase into HeLa cells (HeLa cells [4]): JBS-Proteoducin > MPGα ≥ MPGβ > CAD-2 >> CPPP-2 // HIV-TAT, penetratin
- rank order of uptake efficiency of ATTO488-dUTP into HeLa cells (HeLa cells [6]): JBS-Nucleoducin > CAD-2 > MPGα ≥ MPGβ > penetratin >> CPP-2

Substance: YGRKKRRQRRR-amide [HIV-TAT (47-57), amphiphilic-cationic cell penetrating peptide, 9 positive charges]
- rank order for uptake efficiency of β-galactosidase into Leishmania tarentolae (Leishmania tarentolae [1]): CAD-2 > MPGα > Histone > MPGβ >> penetratin ≥ HIV-TAT ≥ CPPP-2
- Cytotoxicity in Leishmania tarentolae (Leishmania tarentolae [3]; [11]): ≥ 30 µM
- rank order for internalization of β-galactosidase into HeLa cells (HeLa cells [4]): JBS-Proteoducin > MPGα ≥ MPGβ > CAD-2 >> CPPP-2 // HIV-TAT, penetratin
- rank order of uptake efficiency of ATTO488-dUTP into HeLa cells (HeLa cells [6]): not able to transport
